Experimental findings from patent US9216173B2, “2-Pyridyl carboxamide-containing spleen tyrosine kinase (SYK) inhibitors” (Merck Sharp & Dohme Corp., priority 2011, dated 2015) are described below.

For the first test, the target named is T1, recombinant human GST-SYK (Homo sapiens, UniProt P43405).
T1 construct: purchased Carna Biosciences 08-176
Briefly: Homogeneous Time-Resolved Fluorescence (HTRF) assay for the recombinant human Syk enzyme. As to conditions: GST-hSYK 5 pM, ATP 25 μM, 10-dose titration 10 μM to 0.508 nM; read-out: IC50. It is filed as biochemical. As for the experimental part: Homogeneous Time-Resolved Fluorescence (HTRF) Assay for the Recombinant Human Syk Enzyme
A recombinant GST-hSYK fusion protein was used to measure potency of compounds to inhibit human Syk activity. […] Final volume of the reaction was 10 μL. Phosphorylation of the peptide was allowed to proceed for 45 minutes at room temperature. To quench the reaction and detect the phosphorylated product, 2 nM of a Europium-anti-phosphotyrosine antibody (Perkin Elmer #AD0161) and 70 nM SA-APC (Perkin-Elmer #CR130-100) were added together in 15 mM Tris pH 7.5, 40 mM EDTA, 0.01% tween 20. Final volume of the quenching solution was 10 μL. The resulting HTRF signal was measured after 30 minutes on an EnVision (Perkin-Elmer) reader using a time-resolved fluorescence protocol.
On to `Cn1ccc(Nc2cc(N[C@@H]3CS(=O)(=O)CC[C@@H]3N)cnc2C(N)=O)n1` (relative stereo) [Example 1.89, rel-5-{[(3S,4S)-4-amino-1,1-dioxidotetrahydro-2H-thiopyran-3-yl]amino}-3-[(1-methyl-1H-pyrazol-3-yl)amino]pyridine-2-carboxamide], for which the IC50 came to 340 nM.

For `Cc1cc(C)nc(Nc2cc(N[C@H]3CC[C@@H]3N)cnc2C(N)=O)c1` (relative stereo) [Example 1.116, rel-5-{[(1S,2S)-2-aminocyclobutyl]amino}-3-[(4,6-dimethylpyridin-2-yl)amino]pyridine-2-carboxamide], the IC50 turned out to be 55 nM.

For `Cc1cc(C)nc(Nc2cc(N[C@@H]3C[C@H]3N)cnc2C(N)=O)c1` (relative stereo) [Example 2.13, rel-5-{[(1R,2R)-2-aminocyclopropyl]amino}-3-[(4,6-dimethylpyridin-2-yl)amino]pyridine-2-carboxamide], the IC50 was found to be 770 nM.

On to `Cc1ccc(Nc2cc(N[C@@H]3CCCC[C@@H]3N)cnc2C(N)=O)nc1C` [Example 1.6, 5-{[(1R,2S)-2-aminocyclohexyl]amino}-3-[(5,6-dimethylpyridin-2-yl)amino)pyridine-2-carboxamide], for which the IC50 is 0.53 nM.

The same test, now with this note: GST-hSYK 5 pM, ATP 25 μM, 10-dose titration 10 μM to 0.508 nM; read-out: rhSYK Activity (IC50 rating).
For the compound `Cc1cc(C)nc(Nc2cc(N[C@@H]3CCC[C@@H]3N)cnc2C(N)=O)c1` (relative stereo) [Example 1.18, rel-5-{[(1R,2S)-2-aminocyclopentyl]amino}-3-[(4,6-dimethylpyridin-2-yl)amino]pyridine-2-carboxamide], the IC50 was under 10 nM.

For `Cn1ccc(Nc2cc(N[C@@H]3CS(=O)(=O)CC[C@@H]3N)cnc2C(N)=O)n1` (relative stereo) [Example 1.89, rel-5-{[(3S,4S)-4-amino-1,1-dioxidotetrahydro-2H-thiopyran-3-yl]amino}-3-[(1-methyl-1H-pyrazol-3-yl)amino]pyridine-2-carboxamide], the concentration for half-maximal inhibition (IC50) lay within 100 to 1000 nM.

With `NC(=O)c1ncc(N[C@@H]2CS(=O)(=O)CC[C@@H]2N)cc1Nc1ccn(-c2ccc(F)cc2)n1` (relative stereo) [Example 1.90, rel-5-{[(3S,4S)-4-amino-1,1-dioxidotetrahydro-2H-thiopyran-3-yl]amino}-3-{[1-(4 fluorophenyl)-1H-pyrazol-3-yl]amino}pyridine-2-carboxamide], the half-maximal inhibitory concentration (IC50) is under 10 nM.

For `CCc1cccc(Nc2cc(N[C@@H]3CS(=O)(=O)CC[C@@H]3N)cnc2C(N)=O)n1` (relative stereo) [Example 1.91, rel-5-{[(3S,4S)-4-amino-1,1-dioxidotetrahydro-2H-thiopyran-3-yl]amino}-3-[(6-ethylpyridin-2-yl)amino]pyridine-2 carboxamide], the IC50 was under 10 nM.

Turning to `Cc1cc(C)nc(Nc2cc(N[C@H]3CC[C@@H]3N)cnc2C(N)=O)c1` (relative stereo) [Example 1.116, rel-5-{[(1S,2S)-2-aminocyclobutyl]amino}-3-[(4,6-dimethylpyridin-2-yl)amino]pyridine-2-carboxamide], the IC50 is 10 to 100 nM.

As for `Cc1cc(C)nc(Nc2cc(N[C@H]3CS(=O)(=O)C[C@@H]3N)cnc2C(N)=O)c1` (relative stereo) [Example 2.6, rel-5-{[(3R,4R)-4-amino-1,1-dioxidotetrahydrothiophen-3-yl]amino}-3-[(4,6-dimethylpyridin-2-yl)amino]pyridine-2-carboxamide], the concentration for half-maximal inhibition (IC50) fell in the range of 100 to 1000 nM.

Take `Cc1cc(C)nc(Nc2cc(N[C@@H]3C[C@H]3N)cnc2C(N)=O)c1` (relative stereo) [Example 2.13, rel-5-{[(1R,2R)-2-aminocyclopropyl]amino}-3-[(4,6-dimethylpyridin-2-yl)amino]pyridine-2-carboxamide]: the IC50 lay within 100 to 1000 nM.

With `Cc1cc(C)nc(Nc2cc(N[C@H]3CCC[C@H]3N)cnc2C(N)=O)c1` (single isomer, unassigned) [Example 1.25], the concentration for half-maximal inhibition (IC50) lay within 10 to 100 nM.

As to `Cc1cc(C)nc(Nc2cc(N[C@H]3CCC[C@H]3N)cnc2C(N)=O)c1` (single isomer, unassigned) [Example 1.26], the half-inhibitory concentration (IC50) is under 10 nM.

Take `Cc1cc(C)nc(Nc2cc(NC[C@H](C)N)cnc2C(N)=O)c1` [Example 1.3, 5-{[(2S)-2-aminopropyl]amino}-3-[(4,6-dimethylpyridin-2-yl)amino]pyridine-2-carboxamide]: the IC50 was under 10 nM.

Turning to `Cc1cccc(Nc2cc(NCCN)cnc2C(N)=O)n1` [Example 1.4, 5-[(2-aminoethyl)amino]-3-[(6-methylpyridin-2-yl)amino]pyridine-2-carboxamide], the IC50 fell in the range of 10 to 100 nM.

Consider `Cc1cc(C)nc(Nc2cc(NCCN)cnc2C(N)=O)c1` [Example 1.5, 5-[(2-aminoethyl)amino]-3-[(4,6-dimethylpyridin-2-yl)amino]pyridine-2-carboxamide], for which the half-inhibitory concentration (IC50) was under 10 nM.

As for `Cc1ccc(Nc2cc(N[C@@H]3CCCC[C@@H]3N)cnc2C(N)=O)nc1C` [Example 1.6, 5-{[(1R,2S)-2-aminocyclohexyl]amino}-3-[(5,6-dimethylpyridin-2-yl)amino)pyridine-2-carboxamide], the IC50 is under 10 nM.

For `Cc1cccc(Nc2cc(N[C@@H]3CCCC[C@@H]3N)cnc2C(N)=O)n1` [Example 1.7, 5-{[(1R,2S)-2-aminocyclohexyl]amino}-3-[(6-methylpyridin-2-yl)amino]pyridine-2-carboxamide], the half-inhibitory concentration (IC50) was under 10 nM.

Take `NC(=O)c1ncc(N[C@@H]2CCCC[C@@H]2N)cc1Nc1ccc2ccccc2n1` [Example 1.9, 5-{[(1R,2S)-2-aminocyclohexyl]amino}-3-(quinolin-2-ylamino)pyridine-2-carboxamide]: the half-inhibitory concentration (IC50) is under 10 nM.

As to `Cc1nc(Nc2cc(NC[C@H](C)N)cnc2C(N)=O)ccc1-c1cn(C)cn1` [Example 1.10, 5-{[(2S)-2-aminopropyl]amino}-3-{[6-methyl-5-(1-methyl-1H-imidazol-4-yl)pyridin-2-yl]amino}pyridine-2-carboxamide], the IC50 was under 10 nM.

Regarding `Cc1nc(Nc2cc(N[C@@H]3CCCC[C@@H]3N)cnc2C(N)=O)ccc1-c1cnn(C)c1` [Example 1.11, 5-{[(1R,2S)-2-aminocyclohexyl]amino}-3-{[6-methyl-5-(1-methyl-1H-pyrazol-4-yl)pyridin-2-yl]amino}pyridine-2-carboxamide], the IC50 was under 10 nM.

`Cc1cc(Cl)cc(Nc2cc(N[C@@H]3CCCC[C@@H]3N)cnc2C(N)=O)n1` [Example 1.12, 5-{[(1R,2S)-2-aminocyclohexyl]amino}-3-[(4-chloro-6-methylpyridin-2-yl)amino]pyridine-2-carboxamide]: the IC50 was under 10 nM.

Consider `COc1cccc(Nc2cc(N[C@@H]3CCCC[C@@H]3N)cnc2C(N)=O)n1` [Example 1.13, 5-{[(1R,2S)-2-aminocyclohexyl]amino}-3-[(6-methoxypyridin-2-yl)amino]pyridine-2-carboxamide], for which the IC50 is under 10 nM.

In the case of `NC(=O)c1ncc(N[C@@H]2CCCC[C@@H]2N)cc1Nc1ccn(-c2ccccc2)n1` [Example 1.14, 5-{[(1R,2S)-2-aminocyclohexyl]amino}-3-[(1-phenyl-1H-pyrazol-3-yl)amino]pyridine-2-carboxamide], the 50% inhibitory concentration (IC50) was under 10 nM.

Regarding `NC(=O)c1ncc(N[C@@H]2CCCC[C@@H]2N)cc1Nc1cccc(-c2ccc3c(c2)CCO3)n1` [Example 1.15, 5-{[(1R,2S)-2-aminocyclohexyl]amino}-3-{[6-(2,3-dihydro-1-benzofuran-5-yl)pyridin-2-yl]amino}pyridine-2-carboxamide], the IC50 was under 10 nM.

Turning to `NC(=O)c1ncc(N[C@@H]2CCCC[C@@H]2N)cc1Nc1cccc(-c2ccc3c(c2)OCCO3)n1` [Example 1.16, 5-{[(1R,2S)-2-aminocyclohexyl]amino}-3-{[6-(2,3-dihydro-1,4-benzodioxin-6-yl)pyridin-2-yl]amino}pyridine-2-carboxamide], the IC50 is under 10 nM.

Turning to `NC(=O)c1ncc(N[C@@H]2CCCC[C@@H]2N)cc1Nc1ccc2nccn2n1` [Example 1.17, 5-{[(1R,2S)-2-aminocyclohexyl]amino}-3-(imidazo[1,2-b]pyridazin-6-ylamino)pyridine-2-carboxamide], the half-maximal inhibitory concentration (IC50) was under 10 nM.

In the case of `Cc1cc(C)nc(Nc2cc(NC(C)(C)CN)cnc2C(N)=O)c1` [Example 1.19, 5-[(2-amino-1,1-dimethylethyl)amino]-3-[(4,6-dimethylpyridin-2-yl)amino]pyridine-2-carboxamide], the IC50 was in the range of 10 to 100 nM.

Consider `Cc1cc(C)nc(Nc2cc(NC(CN)c3ccccc3)cnc2C(N)=O)c1` (stereo not drawn) [Example 1.21, 5-[(2-amino-1-phenylethyl)amino]-3-[(4,6-dimethylpyridin-2-yl)amino]pyridine-2-carboxamide], for which the half-inhibitory concentration (IC50) was under 10 nM.

Take `Cc1cc(C)nc(Nc2cc(NC(CN)c3ccccc3)cnc2C(N)=O)c1` (stereo not drawn) [Example 1.22, 5-[(2-amino-1-phenylethyl)amino]-3-[(4,6-dimethylpyridin-2-yl)amino]pyridine-2-carboxamide]: the 50% inhibitory concentration (IC50) is under 10 nM.

Take `Cc1cc(C)nc(Nc2cc(NC(CN)c3ccccc3)cnc2C(N)=O)c1` (stereo not drawn) [Example 1.23, 5-[(2-amino-1-phenylethyl)amino]-3-[(4,6-dimethylpyridin-2-yl)amino]pyridine-2-carboxamide]: the IC50 was 10 to 100 nM.

Consider `Cc1nc(Nc2cc(N[C@@H]3CCCC[C@@H]3N)cnc2C(N)=O)ccc1F` [Example 1.24, 5-{[(1R,2S)-2-aminocyclohexyl]amino}-3-[(5-fluoro-6-methylpyridin-2-yl)amino]pyridine-2-carboxamide], for which the IC50 was under 10 nM.

As for `NC(=O)c1ncc(N[C@@H]2CCCC[C@@H]2N)cc1Nc1cccc(-c2ccncc2)n1` [Example 1.27, 5-{[(1R,2S)-2-aminocyclohexyl]amino}-3-(2,4′-bipyridin-6-ylamino)pyridine-2-carboxamide], the IC50 was under 10 nM.

As to `NC(=O)c1ncc(N[C@@H]2CCCC[C@@H]2N)cc1Nc1cccc(-c2ccccc2)n1` [Example 1.28, 5-{[(1R,2S)-2-aminocyclohexyl]amino}-3-[(6-phenylpyridin-2-yl)amino]pyridine-2-carboxamide], the half-inhibitory concentration (IC50) was under 10 nM.

Regarding `Cc1cc(C)nc(Nc2cc(NCC3(N)CCS(=O)(=O)CC3)cnc2C(N)=O)c1` [Example 1.29, 5-{[(4-amino-1,1-dioxidotetrahydro-2H-thiopyran-4-yl)methyl]amino}-3-[(4,6-dimethylpyridin-2-yl)amino]pyridine-2-carboxamide], the half-inhibitory concentration (IC50) fell in the range of 10 to 100 nM.

Regarding `Cc1cc(C)nc(Nc2cc(NC(C)CN)cnc2C(N)=O)c1` (stereo not drawn) [Example 1.30, 5-[(2-amino-1-methylethyl)amino]-3-[(4,6-dimethylpyridin-2-yl)amino]pyridine-2-carboxamide], the IC50 is under 10 nM.
